Assay results: patent US7799775B2, “Pyrimidine derivatives” (ASKA Pharmaceutical Co., Ltd., priority 2004, dated 2010)
Structures can show the parent of a compound that is named as a salt.

Columns and labels:
human 5-HT1A receptor = biological target: T1, human 5-HT1A receptor (Homo sapiens, UniProt P08908); assay: Affinity measurement of the compounds to human 5-HT1A receptor (in vitro), [3H]8-OH-DPAT binding; conditions: test compound 100 nmols/L; [3H]8-OH-DPAT 0.25 nmols/L; CHO cell membrane expressing human 5-HT1A receptor; read-out: Percent Inhibition (%) on Each Receptor's Binding at 10^−7M, 5-HT1A
T1 construct: purchased Packard Bioscience; host or cells: CHO cells (membrane preparation)
T1 sequence (P08908 1-422): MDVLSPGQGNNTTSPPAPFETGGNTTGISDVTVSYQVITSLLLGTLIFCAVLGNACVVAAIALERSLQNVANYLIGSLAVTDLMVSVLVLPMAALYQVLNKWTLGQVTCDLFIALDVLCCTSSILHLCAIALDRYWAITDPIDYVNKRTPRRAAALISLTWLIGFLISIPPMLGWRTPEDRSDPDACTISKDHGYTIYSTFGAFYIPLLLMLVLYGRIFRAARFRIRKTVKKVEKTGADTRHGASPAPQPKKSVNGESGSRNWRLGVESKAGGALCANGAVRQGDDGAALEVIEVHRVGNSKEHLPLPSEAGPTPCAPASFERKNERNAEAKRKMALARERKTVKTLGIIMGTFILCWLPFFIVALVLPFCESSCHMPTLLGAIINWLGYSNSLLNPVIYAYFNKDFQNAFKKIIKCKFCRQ
Procedure, shortened: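 Membranes from CHO cells expressing human 5-HT1A were incubated 60 min at 27 °C with 0.25 nmol/L [3H]8-OH-DPAT and compound in Tris/MgSO4/EDTA/ascorbate buffer, pH 7.4. Bound radioactivity was collected on PEI-soaked GF/C filters and counted; percent inhibition was corrected for non-specific binding defined with 10 μmol/L 8-OH-DPAT.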

human 5-HT3 receptor = biological target: T2, human 5-HT3 receptor (Homo sapiens, UniProt P46098); assay: Measurement of affinity to human 5-HT3 receptor (in vitro), [3H]BRL-43694 binding; conditions: test compound 100 nmols/L; [3H]BRL-43694 0.5 nmols/L; HEK-293 cell membrane expressing human 5-HT3 receptor; read-out: Percent Inhibition (%) on Each Receptor's Binding at 10^−7M, 5-HT3
T2 construct: purchased BIOLINKS K.K; host or cells: HEK-293 cells (membrane preparation)
T2 sequence (P46098 24-478): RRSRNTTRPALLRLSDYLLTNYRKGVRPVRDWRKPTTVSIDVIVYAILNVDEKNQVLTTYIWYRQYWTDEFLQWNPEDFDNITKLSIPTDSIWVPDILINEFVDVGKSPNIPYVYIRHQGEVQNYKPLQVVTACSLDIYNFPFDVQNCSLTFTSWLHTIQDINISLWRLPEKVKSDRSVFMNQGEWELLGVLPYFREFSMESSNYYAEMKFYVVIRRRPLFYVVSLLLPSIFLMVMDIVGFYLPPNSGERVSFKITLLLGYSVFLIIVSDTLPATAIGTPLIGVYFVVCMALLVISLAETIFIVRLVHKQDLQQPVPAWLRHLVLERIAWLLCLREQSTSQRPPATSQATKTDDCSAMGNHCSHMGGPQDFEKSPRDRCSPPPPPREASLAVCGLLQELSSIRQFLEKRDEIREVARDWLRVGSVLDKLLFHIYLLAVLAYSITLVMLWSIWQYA
Procedure, shortened: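 Membranes from HEK-293 cells expressing the receptor were incubated with 0.5 nmol/L radioligand and compound for 60 min at 25 °C in Tris/MgCl2/EDTA buffer, pH 7.5. Bound radioactivity was collected by filtration and counted. Percent inhibition was corrected for non-specific binding defined with 10 μmol/L tropisetron; compounds were tested at 100 nmol/L.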

inhibition at 0.1 µM (human 5-HT1A receptor) | inhibition at 0.1 µM (human 5-HT3 receptor) | SMILES
99.8% | 95.9% | CCOC(=O)c1sc2nc(SCCCN3CCN(c4ccc5ccccc5n4)CC3)n(N)c(=O)c2c1C [Example 1-14, 3-amino-5-methyl-4-oxo-2-[3-(4-quinolin-2-ylpiperazin-1-yl)-propylthio]-3,4-dihydrothieno[2,3-d]pyrimidine-6-carboxylic acid ethyl ester]
94.5% | 94% | Cc1sc2nc(SCCCN3CCN(c4ccc5ccccc5n4)CC3)n(N)c(=O)c2c1C [Example 1-1, 3-amino-5,6-dimethyl-2-[3-(4-quinolin-2-ylpiperazin-1-yl)-propylthio]-3H-thieno[2,3-d]pyrimidin-4-one]
74% | 94.8% | O=c1[nH]c(NCCCN2CCN(c3ccc4ccccc4n3)CC2)nc2c1CCCC2 [Example 5-1, 2-[3-(4-quinolin-2-ylpiperazin-1-yl)propylamino]-5,6,7,8-tetrahydro-3H-quinazolin-4-one]
41.9% | 34.6% | O=c1[nH]c(SCCCN2CCN(c3ccc4ccccc4n3)CC2)nc2ccsc12 [Example 2-12, 2-[3-(4-quinolin-2-ylpiperazin-1-yl)propylthio]-3H-thieno[3,2-d]-pyrimidin-4-one]
96.6% | 93.2% | Nn1c(SCCCN2CCN(c3ccc4ccccc4n3)CC2)nc2sc3c(c2c1=O)CCCC3 [Example 1-4, 3-amino-2-[3-(4-quinolin-2-ylpiperazin-1-yl)propylthio]-5,6,7,8-tetrahydro-3H-benzo[4,5]thieno[2,3-d]pyrimidin-4-one]
95.8% | 58.5% | Nn1c(CCCCN2CCN(c3ccc4ccccc4n3)CC2)nc2c(c1=O)CCCCC2 [Example 4-42, 3-amino-2-[4-(4-quinolin-2-ylpiperazin-1-yl)butyl]-5,6,7,8,9-pentahydro-3H-cyclohepta[d]pyrimidin-4-one]
93.1% | 68.8% | Cn1c(CCCCN2CCN(c3ccc4ccccc4n3)CC2)nc2cccc(Cl)c2c1=O [Example 7-18, 5-chloro-3-methyl-2-[4-(4-quinolin-2-ylpiperazin-1-yl)butyl]-3H-quinazolin-4-one]
96.9% | 91.5% | CC1CCc2nc(CCCCN3CCN(c4ccc5ccccc5n4)CC3)n(N)c(=O)c2C1 (stereo not drawn) [Example 4-60, 3-amino-6-methyl-2-[4-(4-quinolin-2-ylpiperazin-1-yl)butyl]-5,6,7,8-tetrahydro-3H-quinazolin-4-one]
94.3% | 87.8% | Cc1ccc2nc(CCCCN3CCN(c4ccc5ccccc5n4)CC3)n(N)c(=O)c2c1 [Example 4-20, 3-amino-6-methyl-2-[4-(4-quinolin-2-ylpiperazin-1-yl)butyl]-3H-quinazolin-4-one]
57.7% | 51.9% | CCCc1cc(=O)[nH]c(SCCCN2CCN(c3ccc4ccccc4n3)CC2)n1 [Example 2-14, 6-propyl-2-[3-(4-quinolin-2-ylpiperazin-1-yl)propylthio]-3H-pyrimidin-4-one]
78.3% | 30% | Cc1ccc2c(=O)n(C)c(CCCCN3CCN(c4ccc5ccccc5n4)CC3)nc2c1 [Example 7-24, 3,7-dimethyl-2-[4-(4-quinolin-2-ylpiperazin-1-yl)butyl]-3H-quinazolin-4-one]
81.6% | 52.8% | Cc1cc(N2CCN(CCCSc3nc4sc5c(c4c(=O)[nH]3)CCNC5)CC2)nc2ccccc12 [Example 2-20, 2-[3-[4-(4-methylquinolin-2-yl)piperazin-1-yl]propylthio]-3,4,5,6,7,8-hexahydro-4-oxo-9-thia-1,3,7-triaza-9H-fluorene trihydrochloride]
97% | 79.3% | Nn1c(CCCCN2CCN(c3ccc4ccccc4n3)CC2)nc2sccc2c1=O [Example 4-23, 3-amino-2-[4-(4-quinolin-2-ylpiperazin-1-yl)butyl]-3H-thieno[2,3-d]-pyrimidin-4-one]
95.7% | 79.6% | NN1Oc2c(sc3c2CCCCCC3)N=C1SCCCN1CCN(c2ccc3ccccc3n2)CC1 [Example 1-24, 3-amino-2-[3-(4-quinolin-2-ylpiperazin-1-yl)propylthio]-3,4,5,6,7,8,9,10-octahydro-4-oxa-11-thia-1,3-diaza-11H-cycloocta[a]-indene]
93.4% | 78.8% | Cc1cc(N2CCN(CCCCc3nc4c(c(=O)n3Cc3ccccc3)CCCC4)CC2)nc2ccccc12 [Example 7-8, 3-benzyl-2-[4-[4-(4-methylquinolin-2-yl)piperazin-1-yl]butyl]-5,6,7,8-tetrahydro-3H-quinazolin-4-one]

Further lines, the compound ahead of its results:

SMILES | inhibition at 0.1 µM (human 5-HT1A receptor) | inhibition at 0.1 µM (human 5-HT3 receptor)
Cc1cc2c(N3CCNCC3)nccc2o1 [Production Example 25, 2-methylpiperazin-1-ylfuro[3,2-c]pyridine] | 83.2% | 65.5%
CN1CCN(c2nccc3ccc(F)cc23)CC1 [Production Example 52, 7-fluoro-1-(4-methylpiperazin-1-yl)isoquinoline] | 84.1% | 97%
c1cnc2c(N3CCN4CCC[C@H]4C3)nccc2c1 [Production Example 74, 8-((8aS)-octahydropyrrolo[1,2-a]pyrazin-2-yl)-1,7-naphthyridine] | 94.6% | 98.9%
COc1ccc2ccnc(N3CCN4CCCCC4C3)c2c1 (stereo not drawn) [Production Example 81, 7-methoxy-1-octahydropyrido[1,2-a]pyrazin-2-ylisoquinoline] | 95.8% | 74.4%
Clc1ccc2ccnc(N3CCN4CCC[C@@H]4C3)c2c1 [Production Example 76, 7-chloro-1-((8aR)-octahydropyrrolo[1,2-a]pyrazin-2-yl)isoquinoline] | 96.6% | 94.4%
Fc1ccc(COc2ccc3ccnc(N4CCNCC4)c3c2)cc1 [Production Example 98, 7-(4-fluorobenzyloxy)-1-piperazin-1-ylisoquinoline] | 88.2% | 60.8%
COc1ccc2c(N3CCNCC3)nccc2c1 [Production Example 40, 6-methoxy-1-piperazin-1-ylisoquinoline] | 42.9% | 99.3%
CCN1CCN(c2nccc3ccsc23)CC1 [Production Example 17, 7-(4-ethylpiperazin-1-yl)-thieno[2,3-c]pyridine] | 83.6% | 82.9%
CCN1CCN(c2nccc3ccccc23)CC1 [Production Example 37, 1-(4-ethylpiperazin-1-yl)isoquinoline] | 57.3% | 70.2%
Fc1ccc2ccnc(N3CCNCC3)c2c1 [Production Example 63, 7-fluoro-1-piperazin-1-ylisoquinoline] | 80.4% | 96.8%
COc1ccc2c(C)cnc(N3CCNCC3)c2c1 [Production Example 28, 7-methoxy-4-methyl-1-piperazin-1-ylisoquinoline] | 23.9% | 92.5%
c1cc2occc2c(N2CCN3CCCCC3C2)n1 (stereo not drawn) [Production Example 119, 4-octahydropyrido[1,2-a]pyrazin-2-ylfuro[3,2-c]pyridine] | 33.7% | 71.9%
